# From PMC3592886, “Utilization of Quantitative In Vivo Pharmacology Approaches to Assess Combination Effects of Everolimus and Irinotecan in Mouse Xenograft Models of Colorectal Cancer” (PLoS ONE, 2013)
# Assays:
# [1] = everolimus, mice; cited from earlier work
# HT29 cells [2] = test: In vitro metabolomics, HT29 cells; assay type: cell-based; details: 24 and 96 hours exposure to 30nM RAD001
# Experimental: Metabolomics was performed in vitro on HCT116
# (KRAS mt; PIK3CA mt) and HT29 (BRAF mt;
# PIK3CA mt) cells after 0 (control), 24 and 96 hours exposure to 30nM RAD001. In both cell lines after 24 and 96 hours glucose uptake was reduced showing a decrease in proliferation. […]
# HT29 cells [3] = test: Sulforhodamine B (SRB) anti-proliferation assay, HT29; assay type: cell-based
# Experimental: (§1) Cytoxic effects were determined using the sulforhodamine B (SRB) assay. Briefly, 5000 viable cells were plated into 96-well plates and incubated overnight prior to exposure with different concentrations of drugs. Cells were exposed to increasing concentrations of everolimus (0–200 nM), SN38 (0–8 nM), and combinations of the two. Following a 72 hour incubation, media was removed and cells were fixed with cold 10% trichloroacetic acid for 30 minutes at 4° C. Cells were washed with water and stained with 0.4% SRB for 30 minutes at room temperature. Cells were washed again with 1% acetic acid and stain was solubilized with 10 mM tris at room temperature and read at an OD of 565 nm. […] The resulting Combination Index (CI) was used as a quantitative measure of the degree of interaction between different drugs. A CI value equal to 1 denotes additivity; CI greater than 1, antagonism; CI less than 1, synergism.
# HT29 tumors = test: NMR-based metabolomics of HT29 tumors; assay type: in vivo, mice; details: end of study
# Experimental: When HT29 and HCT116 tumors reached an average volume of ∼325 mm^3 animals were randomized into four treatment groups (n = 9–10 mice per group): (i) vehicles, (ii) 5 mg/kg everolimus (RAD) by oral gavage (PO) daily, (iii) 10 mg/kg irinotecan (IRI) once weekly by intravenous (iv) tail vein injection, and (iv) a combination of RAD and IRI. Everolimus, diluted in sterile water, and irinotecan, diluted in sterile 0.9% saline, were administered at 4 mL/kg. Animals were treated for 28 days. Tumor volumes and body weights were measured 2–3 times weekly. On day 28 of treatment 3–6 animals per group were sacrificed, approximately 24 hours following everolimus treatment, and tumors harvested for metabolomic analysis.
# For metabolomic analysis, animals were fasted for 4 hours then received 250 mg/kg of [1-^13C] glucose (Cambridge Isotopes, Cambridge, MA) by IV injection 60 minutes prior to tumor harvesting. Snap-frozen tumor specimens underwent two-phase acid extraction procedure (using 8% perchloric acid) previously established and extensively published [19]–[22]. Further details may also be found in Supplement S1 (section SA.2.).
# [4] = system: ribosomal phospho-S6 kinase (pS6RP); test: Western blot, pS6RP in CRC cell lines; assay type: cell-based; details: everolimus 20 nM, 24 hours, all cell lines
# Experimental: Cells were seeded into 6-well plates 24 hours prior to treatment with each drug alone or in combination for 24 hours. Cells were scraped into RIPA buffer containing protease inhibitors, EDTA, NaF, and sodium orthovanadate. Total protein was determined using the Pierce 660 nm Protein Assay (Pierce, Rockford, IL). Thirty micrograms of total protein was loaded onto a 4–12% gradient gel, electrophoresed and transferred to nitrocellulose using the iBlot system (Invitrogen, Carlsbad, CA). Membranes were blocked for one hour at room temperature with Licor Blocking Buffer (Licor, Lincoln, NE) prior to overnight incubation at 4°C with one of the following antibodies: pS6RP, tS6RP, pAKT, tAKT, pERK, tERK, p21, PARP, actin and α-tubulin (Cell Signaling, Beverly, MA). All antibodies were used at a 1∶1000 dilution except for pERK, which was used at 1∶2000. Following primary antibody incubation, blots were washed in TBS-Tween(0.1%), then incubated with the appropriate secondary antibody at 1∶15,000 (Licor, Lincoln, NE) for one hour at room temperature. After three additional washes, blots were developed using the Licor Odyssey (Licor, Lincoln, NE).
# HCT116 cells = test: Sulforhodamine B (SRB) anti-proliferation assay, HCT116; assay type: cell-based
# Experimental: as §1
compound,measurement,setting,value
"CO[C@H]1C[C@@H]2CC[C@@H](C)[C@@](O)(O2)C(=O)C(=O)N2CCCC[C@H]2C(=O)O[C@H]([C@H](C)C[C@@H]2CC[C@@H](OCCO)[C@H](OC)C2)CC(=O)[C@H](C)/C=C(\C)[C@@H](O)[C@@H](OC)C(=O)[C@H](C)C[C@H](C)/C=C/C=C/C=C/1C [Everolimus, 40-O-(2-hydroxyethyl)-rapamycin]",plasma protein binding,[1],99%
same,glucose uptake,HT29 cells [2],reduced
same,%Growth Inhibition,"HT29 cells [3]; HT29, RAD (20 nM), SN38 (4 nM) or the combination of the two, Figure 2",74%
same,IC50,"HT29 cells [3]; Homo sapiens, HT-29, HT29 cells",0.0012 µM
same,effects on glucose metabolism,HT29 tumors,decrease in lactate and glycolysis
same,effect on ribosomal phospho-S6 kinase (pS6RP),[4],able to inhibit
same,%Growth Inhibition,"HCT116 cells; HCT116, RAD (20 nM), SN38 (4 nM) or the combination of the two, Figure 2",49%
same,IC50,"HCT116 cells; Homo sapiens, HCT-116, HCT116 cells",0.025 µM
